# From PMC6518372, “An enzymatically stable GIP/xenin hybrid peptide restores GIP sensitivity, enhances beta cell function and improves glucose homeostasis in high-fat-fed mice” (Diabetologia, 2016)
# Test system: lean control mice
# Test: Acute cumulative food intake in lean mice
# Format: in vivo, mouse
# Conditions: 250 nmol/kg i.p., 18 h fasted lean mice, 180 min post injection, vs saline
# Protocol: Animals Acute animal studies were conducted in male NIH Swiss mice (12-14 weeks old, Harlan Ltd, UK) maintained on a standard rodent maintenance diet (10% fat, 30% protein and 60% carbohydrate, Trouw Nutrition, UK). Prior to commencement of longer term studies, all animals, except lean controls that continued on rodent maintenance diet, were maintained on a high-fat diet (45% fat, 35% carbohydrate and 20% protein, Special Diet Services, UK) for 12 weeks. This diet […]
# individually in an air-conditioned room at 22 ± 2 °C with a 12 h light:12 h dark cycle and had free access to food and water. Animal experiments were carried out in accordance with the UK Animals (Scientific Procedures) Act 1986.
# Acute in vivo effects in lean mice For food intake studies, fasted (18 h) mice were given intraperitoneal (i.p) injections of peptides at a dose of 25, 100 or 250 nmol/kg bw. Mice were then allowed free access to normal chow for 180 mins and cumulative food intake measured. For glucose homeostasis and […]
smiles,measurement,value
CC[C@H](C)[C@H](NC(=O)[C@H](CO)NC(=O)[C@H](Cc1ccc(O)cc1)NC(=O)[C@H](CC(=O)O)NC(=O)[C@H](CO)NC(=O)[C@@H](NC(=O)[C@H](Cc1ccccc1)NC(=O)[C@@H](NC(=O)CNC(=O)[C@H](CCC(=O)O)NC(=O)[C@@H](C)NC(=O)[C@@H](N)Cc1ccc(O)cc1)[C@@H](C)O)[C@@H](C)CC)C(=O)N[C@@H](C)C(=O)N[C@@H](CCSC)C(=O)N[C@@H](CC(=O)O)C(=O)N[C@@H](CCCCN)C(=O)N[C@H](C(=O)N[C@@H](Cc1c[nH]cn1)C(=O)N[C@@H](CCC(N)=O)C(=O)N[C@@H](CCC(N)=O)C(=O)N[C@@H](CC(=O)O)C(=O)N[C@@H](Cc1ccccc1)C(=O)N[C@H](C(=O)N[C@@H](CC(N)=O)C(=O)N[C@@H](Cc1c[nH]c2ccccc12)C(=O)N[C@@H](CC(C)C)C(=O)N[C@@H](CC(C)C)C(=O)N[C@@H](C)C(=O)N[C@@H](CCC(N)=O)C(=O)N[C@@H](CCCCN)C(=O)NCC(=O)N[C@@H](CCCCN)C(=O)N[C@@H](CCCCN)C(=O)N[C@@H](CC(N)=O)C(=O)N[C@@H](CC(=O)O)C(=O)N[C@@H](Cc1c[nH]c2ccccc12)C(=O)N[C@@H](CCCCN)C(=O)N[C@@H](Cc1c[nH]cn1)C(=O)N[C@@H](CC(N)=O)C(=O)N[C@H](C(=O)N[C@H](C(=O)N[C@@H](CCC(N)=O)C(=O)O)[C@@H](C)O)[C@@H](C)CC)C(C)C)[C@@H](C)CC [(DAla^2)GIP],Cumulative food intake,all peptides except (DAla^2)GIP induced significant (p < 0.05 to p < 0.01) reductions
